Test results from patent US12404304B1, “Telomerase reverse transcriptase (TERT) expression enhancing compounds and methods for using the same” (Sierra Sciences, LLC, priority 2007, dated 2025).
Where two headings read alike, the source gives them in different places.

Experiments:
viable cells in culture = assay: Cell viability assay (CellTiter-Glo Luminescent Cell Viability Assay, ATP quantitation, percent of vehicle control)
[1] = tested on: human TERT expression (hTERT mRNA); assay: Quantitative real-time RT-PCR of hTERT mRNA expression (Ct, transcripts) in compound-treated cells; format: cell-based
Procedure, shortened: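 Read-out is cycle threshold, the cycle at which probe fluorescence released by Taq 5′-nuclease activity crosses a set level; Ct falls as hTERT mRNA rises. cDNA of treated and untreated cells was compared, with starting transcripts quantified against a known-cDNA standard curve.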

O=C1CC(N2CCN(Cc3ccc(Cl)cc3)CC2)C(=O)N1c1ccccc1 (stereo not shown) [compound 1313]
Average Cell Viability after 24 Hours (% DMSO) (viable cells in culture): 112.79 % DMSO | Average Number of hTERT Transcripts ([1]; quantitative real-time RT-PCR): 7.45

CSCCNC(=O)c1cc(-c2cccs2)on1 [compound 1517]
Average Cell Viability after 24 Hours (% DMSO) (viable cells in culture): 112.40 % DMSO | Average Number of hTERT Transcripts [1]: 140.89

CCC(=O)Nc1nnc(SCc2cc(=O)c3cccc(Cl)c3[nH]2)s1 [compound 1303]
Average Cell Viability after 24 Hours (% DMSO) (viable cells in culture): 80.90 % DMSO | Average Number of hTERT Transcripts ([1]; quantitative real-time RT-PCR): 4.51

Cc1cc(OCC(=O)N/N=C/c2c(C)nn(-c3ccccc3)c2O)ccc1Cl [compound 1485]
Average Cell Viability after 24 Hours (% DMSO) (viable cells in culture): 112.70 % DMSO | Average Number of hTERT Transcripts [1]: 48.25

CC(=O)Nc1ccccc1NS(=O)(=O)c1cccs1 [compound 1391]
Average Cell Viability after 24 Hours (% DMSO) (viable cells in culture): 87.67 % DMSO | Average Number of hTERT Transcripts [1]: 4.95

Cc1ccc(NC(=O)CCC(=O)OCC(=O)c2ccc(Br)cc2)c(C)c1 [compound 1554]
Average Cell Viability after 24 Hours (% DMSO) (viable cells in culture): 71.31 % DMSO | Average Number of hTERT Transcripts [1]: 46.62

CC(Oc1cccc2cccnc12)C(=O)N/N=C/c1cccc2cccnc12 (stereo not shown) [compound 1291]
Average Cell Viability after 24 Hours (% DMSO) (viable cells in culture): 77.64 % DMSO | Average Number of hTERT Transcripts ([1]; quantitative real-time RT-PCR): 47.89

O=C(NC1CC1)c1cc(-c2cccs2)on1 [compound 1208]
Average Cell Viability after 24 Hours (% DMSO) (viable cells in culture): 70.93 % DMSO | Average Number of hTERT Transcripts ([1]; quantitative real-time RT-PCR): 380.09

Cc1ccc(NC(=O)c2cc([N+](=O)[O-])ccc2O)cc1 [compound 1338]
Average Cell Viability after 24 Hours (% DMSO) (viable cells in culture): 80.45 % DMSO | Average Number of hTERT Transcripts ([1]; quantitative real-time RT-PCR): 49.42

O=C(Nc1ccc(Cl)c(Cl)c1)Nc1nnc(CSc2ccccc2)s1 [compound 1301]
Average Cell Viability after 24 Hours (% DMSO) (viable cells in culture): 63.90 % DMSO | Average Number of hTERT Transcripts ([1]; quantitative real-time RT-PCR): 65.14

O=C(NCCc1ccncc1)c1cc(-c2cccs2)on1 [compound 1524]
Average Cell Viability after 24 Hours (% DMSO) (viable cells in culture): 103.34 % DMSO | Average Number of hTERT Transcripts [1]: 562.51

CC(C)(C)C(=O)Nc1nc2c(Cl)c(Cl)ccc2s1 [compound 1446]
Average Cell Viability after 24 Hours (% DMSO) (viable cells in culture): 65.61 % DMSO | Average Number of hTERT Transcripts [1]: 46.62

COc1ccc(NC(=S)NCc2ccco2)c(OC)c1 [compound 1541]
Average Cell Viability after 24 Hours (% DMSO) (viable cells in culture): 104.75 % DMSO | Average Number of hTERT Transcripts [1]: 3.41

CN1CCCC(OC(=O)COc2ccc(F)cc2)C1 (stereo not shown) [compound 1389]
Average Cell Viability after 24 Hours (% DMSO) (viable cells in culture): 93.93 % DMSO | Average Number of hTERT Transcripts [1]: 9.17

CC(C)C(=O)NC(c1cccs1)c1cc(Cl)c2cccnc2c1O (stereo not shown) [compound 1090]
Average Cell Viability after 24 Hours (% DMSO) (viable cells in culture): 27.89 % DMSO | Average Number of hTERT Transcripts ([1]; quantitative real-time RT-PCR): 29.08

COc1ccc(-c2cc(O)n(-c3ccc([N+](=O)[O-])cc3)n2)cc1 [compound 1106]
Average Cell Viability after 24 Hours (% DMSO) (viable cells in culture): 79.49 % DMSO | Average Number of hTERT Transcripts ([1]; quantitative real-time RT-PCR): 68.17

COC(=O)COc1ccc(NC(=O)c2ccccc2I)cc1 [compound 1536]
Average Cell Viability after 24 Hours (% DMSO) (viable cells in culture): 65.12 % DMSO | Average Number of hTERT Transcripts [1]: 7.34

Brc1ccc(CSc2ccc(-c3ccccn3)nn2)cc1 [compound 1258]
Average Cell Viability after 24 Hours (% DMSO) (viable cells in culture): 53.72 % DMSO | Average Number of hTERT Transcripts ([1]; quantitative real-time RT-PCR): 12.89

O=C(NC1CCCC1)c1cc(-c2cccs2)on1 [compound 1184]
Average Cell Viability after 24 Hours (% DMSO) (viable cells in culture): 88.36 % DMSO | Average Number of hTERT Transcripts ([1]; quantitative real-time RT-PCR): 73.49

COc1ccccc1-n1c(=O)oc2ccc(Cl)cc2c1=O [compound 1242]
Average Cell Viability after 24 Hours (% DMSO) (viable cells in culture): 80.60 % DMSO | Average Number of hTERT Transcripts ([1]; quantitative real-time RT-PCR): 56.42

CCn1c(COc2ccc(C(C)C)cc2)nnc1SCC(=O)Nc1nccs1 [compound 1405]
Average Cell Viability after 24 Hours (% DMSO) (viable cells in culture): 110.82 % DMSO | Average Number of hTERT Transcripts [1]: 3.33

COc1ccc(CCNC(=O)c2cc(-c3cccs3)on2)cc1 [compound 1494]
Average Cell Viability after 24 Hours (% DMSO) (viable cells in culture): 110.08 % DMSO | Average Number of hTERT Transcripts [1]: 9.18

O=C(O)CCc1ccc(-c2ccc(Cl)cc2)o1 [compound 1467]
Average Cell Viability after 24 Hours (% DMSO) (viable cells in culture): 79.50 % DMSO | Average Number of hTERT Transcripts [1]: 108.02

Cc1ccc(-c2cc(O)n(-c3nc4ccccc4[nH]3)n2)cc1 [compound 1120]
Average Cell Viability after 24 Hours (% DMSO) (viable cells in culture): 52.50 % DMSO | Average Number of hTERT Transcripts ([1]; quantitative real-time RT-PCR): 118.82

CCCOc1ccc2c(c1)c1c3n2CCN(C)C3=NCC1 [compound 1362]
Average Cell Viability after 24 Hours (% DMSO) (viable cells in culture): 75.90 % DMSO | Average Number of hTERT Transcripts ([1]; quantitative real-time RT-PCR): 15.20

Cc1ccc(Nc2nc3nonc3nc2NC(C)(C)C)cc1C [compound 1229]
Average Cell Viability after 24 Hours (% DMSO) (viable cells in culture): 79.23 % DMSO | Average Number of hTERT Transcripts ([1]; quantitative real-time RT-PCR): 17.57

CC1=NN(c2ccccc2)C(=O)/C1=C\NNC(=O)c1ccccc1 [compound 1465]
Average Cell Viability after 24 Hours (% DMSO) (viable cells in culture): 80.62 % DMSO | Average Number of hTERT Transcripts [1]: 20.29

CCOc1ccc(N2C(=O)CC(N3CCC4(CC3)OCCO4)C2=O)cc1 (stereo not shown) [compound 1360]
Average Cell Viability after 24 Hours (% DMSO) (viable cells in culture): 108.82 % DMSO | Average Number of hTERT Transcripts ([1]; quantitative real-time RT-PCR): 16.98

Cc1nn(-c2nc3ccccc3[nH]2)c(O)c1Cc1ccccc1Cl [compound 1144]
Average Cell Viability after 24 Hours (% DMSO) (viable cells in culture): 40.68 % DMSO | Average Number of hTERT Transcripts ([1]; quantitative real-time RT-PCR): 54.47

O=C(NCCc1ccccn1)c1cc(-c2cccs2)on1 [compound 1521]
Average Cell Viability after 24 Hours (% DMSO) (viable cells in culture): 106.64 % DMSO | Average Number of hTERT Transcripts [1]: 329.90

CC[C@@]1(C2O[C@@H](C3O[C@@](O)(CC)[C@H](C)C[C@@H]3C)C[C@@H]2C)CC[C@H]([C@]2(C)CCC3(C[C@H](O)[C@@H](C)[C@@H]([C@H](C)[C@@H](OC)[C@H](C)C(=O)O)O3)O2)O1 (stereo partly shown) [compound 1469]
Average Cell Viability after 24 Hours (% DMSO) (viable cells in culture): 60.18 % DMSO | Average Number of hTERT Transcripts [1]: 59.72

CCCCN1C(C(=O)c2ccccc2)=C(OC(=O)c2ccco2)c2ccccc2S1(=O)=O [compound 1216]
Average Cell Viability after 24 Hours (% DMSO) (viable cells in culture): 42.91 % DMSO | Average Number of hTERT Transcripts ([1]; quantitative real-time RT-PCR): 5.19

CC1=C(C(=O)OC2CCCC2)C(c2cccc(F)c2)C2=C(CC(c3cccs3)CC2=O)N1 (stereo not shown) [compound 1245]
Average Cell Viability after 24 Hours (% DMSO) (viable cells in culture): 79.22 % DMSO | Average Number of hTERT Transcripts ([1]; quantitative real-time RT-PCR): 8.42

Cc1ccc(Nc2nc3nonc3nc2Nc2ccccc2F)cc1 [compound 1230]
Average Cell Viability after 24 Hours (% DMSO) (viable cells in culture): 72.00 % DMSO | Average Number of hTERT Transcripts ([1]; quantitative real-time RT-PCR): 17.54

COC(=O)COc1ccc(S(=O)(=O)N(C)Cc2ccccc2)cc1 [compound 1415]
Average Cell Viability after 24 Hours (% DMSO) (viable cells in culture): 79.96 % DMSO | Average Number of hTERT Transcripts [1]: 30.51

COC(=O)CSc1nnc(-c2sc3ccccc3c2Cl)n1C [compound 1331]
Average Cell Viability after 24 Hours (% DMSO) (viable cells in culture): 90.44 % DMSO | Average Number of hTERT Transcripts ([1]; quantitative real-time RT-PCR): 32.92

Cc1nn2c(=O)cc(-c3ccc(Cl)cc3)[nH]c2c1-c1ccccc1 [compound 1156]
Average Cell Viability after 24 Hours (% DMSO) (viable cells in culture): 61.07 % DMSO | Average Number of hTERT Transcripts ([1]; quantitative real-time RT-PCR): 45.97

COc1cc(OC)cc(C(=O)Nc2nc(-c3ccccn3)cs2)c1 [compound 1172]
Average Cell Viability after 24 Hours (% DMSO) (viable cells in culture): 88.81 % DMSO | Average Number of hTERT Transcripts ([1]; quantitative real-time RT-PCR): 28.72

CC1CCc2c(sc3ncnc(N4CCCC(C)C4)c23)C1 (stereo not shown) [compound 1545]
Average Cell Viability after 24 Hours (% DMSO) (viable cells in culture): 43.72 % DMSO | Average Number of hTERT Transcripts [1]: 4.40

CC(Oc1cccc2ccccc12)C(=O)NN=Cc1cccc2cccnc12 (stereo not shown) [compound 1284]
Average Cell Viability after 24 Hours (% DMSO) (viable cells in culture): 73.23 % DMSO | Average Number of hTERT Transcripts ([1]; quantitative real-time RT-PCR): 44.70

C=CCc1c(C)nc(SCC(=O)Nc2cc(Cl)cc(Cl)c2)[nH]c1=O [compound 1332]
Average Cell Viability after 24 Hours (% DMSO) (viable cells in culture): 94.78 % DMSO | Average Number of hTERT Transcripts ([1]; quantitative real-time RT-PCR): 12.68
